Converted amounts (≈) assume the structure as drawn.
How the values were obtained:
Escherichia coli = assay: Antibacterial activity against Escherichia coli after 24 hrs by MTT assay; format: functional
Bacillus subtilis = assay: Antibacterial activity against Bacillus subtilis after 24 hrs by MTT assay; format: functional
Staphylococcus aureus = assay: Antibacterial activity against Staphylococcus aureus after 24 hrs by MTT assay; format: functional
[1] = Inhibition of Escherichia coli FabH overexpressed in Escherichia coli DH10B cells by liquid scintillation counting
Pseudomonas fluorescens = assay: Antibacterial activity against Pseudomonas fluorescens after 24 hrs by MTT assay; format: functional

MIC (Escherichia coli) [µg/mL]	MIC (Bacillus subtilis) [µg/mL]	MIC (Staphylococcus aureus) [µg/mL]	IC50 [1] [µM]	MIC (Pseudomonas fluorescens) [µg/mL]	Structure (SMILES)
6.25 (≈ 15.8 µM)	6.25 (≈ 15.8 µM)	3.13 (≈ 7.93 µM)	5.2	12.5 (≈ 31.7 µM)	CN1CCN(CCCOc2cc(O)c3c(=O)cc(-c4ccccc4)oc3c2)CC1
> 50	> 50	> 50	–	> 50	NCCCNCCOc1cc(O)c2c(=O)cc(-c3ccccc3)oc2c1
12.5 (≈ 34.2 µM)	25 (≈ 68.4 µM)	12.5 (≈ 34.2 µM)	–	12.5 (≈ 34.2 µM)	O=c1cc(-c2ccccc2)oc2cc(OCCN3CCCCC3)cc(O)c12
> 50	> 50	> 50	–	> 50	CCCCN(CCCC)CCOc1cc(O)c2c(=O)cc(-c3ccccc3)oc2c1
1.56 (≈ 4.27 µM)	6.25 (≈ 17.1 µM)	3.13 (≈ 8.57 µM)	3.1	6.25 (≈ 17.1 µM)	O=c1cc(-c2ccccc2)oc2cc(OCCCN3CCCC3)cc(O)c12
12.5 (≈ 34.1 µM)	25 (≈ 68.2 µM)	25 (≈ 68.2 µM)	11.2	6.25 (≈ 17.1 µM)	O=c1cc(-c2ccccc2)oc2cc(OCCN3CCNCC3)cc(O)c12
12.5 (≈ 34 µM)	25 (≈ 68 µM)	12.5 (≈ 34 µM)	–	12.5 (≈ 34 µM)	CCCCNCCCOc1cc(O)c2c(=O)cc(-c3ccccc3)oc2c1
> 50	> 50	> 50	–	> 50	CCCCN(CCCC)CCCOc1cc(O)c2c(=O)cc(-c3ccccc3)oc2c1
> 50	> 50	> 50	–	> 50	CCN(CC)CCCOc1cc(O)c2c(=O)cc(-c3ccccc3)oc2c1
12.5 (≈ 35.4 µM)	25 (≈ 70.7 µM)	12.5 (≈ 35.4 µM)	–	12.5 (≈ 35.4 µM)	CCCNCCCOc1cc(O)c2c(=O)cc(-c3ccccc3)oc2c1
6.25 (≈ 17.6 µM)	12.5 (≈ 35.2 µM)	25 (≈ 70.3 µM)	–	12.5 (≈ 35.2 µM)	O=c1cc(-c2ccccc2)oc2cc(OCCCNCCO)cc(O)c12
6.25 (≈ 17.8 µM)	25 (≈ 71.1 µM)	25 (≈ 71.1 µM)	–	12.5 (≈ 35.6 µM)	O=c1cc(-c2ccccc2)oc2cc(OCCN3CCCC3)cc(O)c12
25 (≈ 63.2 µM)	25 (≈ 63.2 µM)	> 50	–	25 (≈ 63.2 µM)	CCCN(CCC)CCCOc1cc(O)c2c(=O)cc(-c3ccccc3)oc2c1
25 (≈ 73.7 µM)	50 (≈ 147 µM)	50 (≈ 147 µM)	54	25 (≈ 73.7 µM)	CCCNCCOc1cc(O)c2c(=O)cc(-c3ccccc3)oc2c1
3.13 (≈ 8.23 µM)	12.5 (≈ 32.9 µM)	6.25 (≈ 16.4 µM)	6.6	12.5 (≈ 32.9 µM)	O=c1cc(-c2ccccc2)oc2cc(OCCCN3CCNCC3)cc(O)c12
12.5 (≈ 32.9 µM)	50 (≈ 131 µM)	25 (≈ 65.7 µM)	–	25 (≈ 65.7 µM)	CN1CCN(CCOc2cc(O)c3c(=O)cc(-c4ccccc4)oc3c2)CC1
> 50	> 50	> 50	–	> 50	CCCN(CCC)CCOc1cc(O)c2c(=O)cc(-c3ccccc3)oc2c1
> 50	> 50	> 50	70	> 50	CCN(CC)CCOc1cc(O)c2c(=O)cc(-c3ccccc3)oc2c1
3.13 (≈ 6.47 µM)	1.56 (≈ 3.23 µM)	1.56 (≈ 3.23 µM)	–	3.13 (≈ 6.47 µM)	NC[C@H]1O[C@H](O[C@H]2[C@H](O)[C@@H](O[C@H]3O[C@H](CO)[C@@H](O)[C@H](N)[C@H]3O)[C@H](N)C[C@@H]2N)[C@H](N)[C@@H](O)[C@@H]1O [BEKANAMYCIN]
> 50	> 50	> 50	–	> 50	O=c1cc(-c2ccccc2)oc2cc(O)cc(O)c12 [CHRYSIN]

Source: ChEMBL document CHEMBL1152526, “Synthesis of C(7) modified chrysin derivatives designing to inhibit beta-ketoacyl-acyl carrier protein synthase III (FabH) as antibiotics” (Bioorg Med Chem, 2009)
